Here are results for 59 molecules from patent US12384753B2, “17-beta-hydroxysteroid dehydrogenase type 13 inhibitors and methods of use thereof” (Enanta Pharmaceuticals, Inc., priority 2021, dated 2025).

The target of the assay is Recombinant human HSD17B13 (Homo sapiens (Human), UniProt Q7Z5P4). Briefly: HSD17B13 rapid-fire mass spectrometry assay (RF/MS assay). The format is biochemical. Conditions: inhibition of HSD17B13; LTB4 10 μM, NAD+ 0.5 mM, RT 3 h; IC50 ranges A-E. A digest of the protocol: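 Sf9-expressed human HSD17B13 (80 nM) with 10 μM LTB4 and 0.5 mM NAD+, incubated with compound (0–100 μM) for 3 h at RT in Tris pH 7.5/BSA/Tween-20. After formic acid quench, LTB4 conversion to 12-oxo-LTB4 measured by RapidFire MS/MS. IC50 from normalised residual activity, duplicates.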
Sequence of Recombinant human HSD17B13 (Q7Z5P4 20-300): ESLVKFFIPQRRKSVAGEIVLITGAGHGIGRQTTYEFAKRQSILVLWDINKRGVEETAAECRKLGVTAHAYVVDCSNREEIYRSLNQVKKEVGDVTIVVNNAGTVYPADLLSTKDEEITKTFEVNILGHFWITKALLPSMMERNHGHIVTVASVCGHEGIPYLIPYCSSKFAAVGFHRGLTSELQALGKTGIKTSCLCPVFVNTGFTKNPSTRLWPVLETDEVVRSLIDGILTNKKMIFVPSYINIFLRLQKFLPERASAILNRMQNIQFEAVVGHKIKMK
`CCC[C@H]1CC[C@H](C2CC=C(c3ccc4c(c3)CN(S(=O)(=O)Nc3ccc(C(=O)O)cc3OC)C4)CC2)CC1` (stereo partly drawn) [Example 377, 3-methoxy-4-((5-((1S,1′s,4′S)-4′-propyl-[1,1′-bi(cyclohexan)]-3-en-4-yl)isoindoline)-2-sulfonamido)benzoic acid]: the half-inhibitory concentration (IC50) was 1000 to 100000 nM.

As for `O=C(O)c1ccc(NS(=O)(=O)c2cnc(-c3ccc(F)cc3)s2)c(F)c1F` [Example 50], the IC50 lay within 100 to 500 nM.

Consider `COc1cc(C(=O)O)c(F)cc1NS(=O)(=O)c1csc(-c2cnc(C3=CCC(C)(C)CC3)c(F)c2)n1` [Example 552], for which the IC50 lay within 100 to 500 nM. Under `COc1cc(C(=O)O)c(F)cc1NS(=O)(=O)c1csc(-c2ccc(C3CCC(C)(C)CC3)cc2C(F)(F)F)n1` [Example 524, 4-((2-(4-(4,4-dimethylcyclohexyl)-2-(trifluoromethyl)phenyl)thiazole)-4-sulfonamido)-2-fluoro-5-methoxybenzoic acid] stands less than 100 nM; under `O=C(O)c1ncc(NS(=O)(=O)c2cnc(-c3ccc(F)cc3)s2)cn1` [Example 106], 1000 to 100000 nM; under `COc1cc(C(=O)O)ccc1NS(=O)(=O)c1csc(C#Cc2ccc(C)cc2)n1` [Example 176, 3-methoxy-4-((2-(p-tolylethynyl)thiazole)-4-sulfonamido)benzoic acid], 100 to 500 nM. With `COc1cc(C(=O)O)ccc1NS(=O)(=O)c1csc2ccccc12` [Example 136], the IC50 lay in the range of 500 to 1000 nM. For `COc1cc(C(=O)O)c(F)cc1NS(=O)(=O)c1csc(-c2ccc(-c3ccc(-c4ccc(C56CC7C[C@H](C5)C[C@H](C7)C6)cc4)cc3C(F)(F)F)cc2C(F)(F)F)n1` [Example 737], the half-maximal inhibitory concentration (IC50) fell in the range of 1000 to 100000 nM. `COc1c(NS(=O)(=O)c2csc(-c3ccc(C4CCC(C)(C)CC4)cc3)n2)ccc(C(=O)O)c1F` [Example 505]: the IC50 was in the range of 100 to 500 nM. As to `COc1cc(C(=O)O)ccc1NS(=O)(=O)c1coc(-c2ccc(C)cc2)n1` [Example 413], the IC50 was less than 100 nM. For `COc1cc(C(=O)O)ccc1NS(=O)(=O)c1cnc(-c2ccc(C#CC3CCCC3)cc2)s1` [Example 455, 4-((2-(4-(cyclopentylethynyl)phenyl)thiazole)-5-sulfonamido)-3-methoxybenzoic acid], the IC50 lay in the range of 100 to 500 nM. Under `COc1cc(C(=O)O)c(F)cc1NS(=O)(=O)c1coc(-c2ccc([C@H]3CC[C@@H](C(C)C)CC3)cc2C(F)(F)F)n1` [Example 673] stands 100 to 500 nM; under `COc1cc(C(=O)O)ccc1NS(=O)(=O)N1CCC(c2ccccc2)CC1` [Example 310], 1000 to 100000 nM; under `COc1cc(C(=O)O)c(F)cc1NS(=O)(=O)c1coc(-c2ccc(C3=CCC4(CC3)OCCO4)cc2)n1` [Example 617], less than 100 nM. Consider `O=C(O)c1ccc(NS(=O)(=O)c2ccc3ccccc3c2)cc1` [Example 4], for which the IC50 lay within 1000 to 100000 nM. Turning to `O=C(O)c1ccc(NS(=O)(=O)c2cnc(-c3ccc(F)cc3)s2)c2ccccc12` [Example 87], the IC50 is 1000 to 100000 nM. With `O=C(O)C12CC(NS(=O)(=O)c3cnc(-c4ccc(F)cc4)s3)(C1)C2` [Example 68], the IC50 is more than 100000 nM. With `COc1cncc(C#Cc2nc(S(=O)(=O)Nc3ccc(C(=O)O)cc3OC)cs2)c1` [Example 248], the IC50 lay in the range of 100 to 500 nM. Under `CCOP(=O)(O)c1ccc(NS(=O)(=O)c2csc(C#Cc3cccc(OC(F)(F)F)c3)n2)c(OC)c1` [Example 400, ethyl hydrogen (3-methoxy-4-((2-((3-(trifluoromethoxy)phenyl)ethynyl)thiazole)-4-sulfonamido)phenyl)phosphonate] stands 1000 to 100000 nM. Under `COc1cc(C(=O)O)ccc1NS(=O)(=O)c1cnc(-c2ccc([C@H]3CC[C@H](C(F)(F)F)CC3)cc2)s1` [Example 713] stands less than 100 nM; under `COc1cc(C(=O)O)c(F)cc1NS(=O)(=O)c1csc(-c2ccc([C@H]3CC[C@@H](C(C)(C)C)CC3)c(OC(C)C)c2F)n1` [Example 597], less than 100 nM; under `O=C(O)c1ccc(NS(=O)(=O)c2cnc(-c3ccc(F)cc3)s2)c(C(F)(F)F)c1` [Example 45], 1000 to 100000 nM.

In the case of `CC[C@H]1CC[C@H](c2ccc(-c3nc(S(=O)(=O)Nc4cc(F)c(C(=O)O)cc4OC)co3)cc2)CC1` [Example 495], the IC50 is less than 100 nM. Then `COc1cc(C(=O)O)ccc1NS(=O)(=O)c1ccc(-c2ccccc2OC)s1` [Example 193], with 100 to 500 nM. Under `CCOc1c(F)c(-c2nc(S(=O)(=O)Nc3cc(F)c(C(=O)O)cc3OC)cs2)ccc1[C@H]1CC[C@H](C(F)(F)F)CC1` [Example 815] stands 100 to 500 nM. Regarding `COc1cc(C(=O)O)c(F)cc1NS(=O)(=O)c1cnc(-c2ccc(C3=CCC(C)(C)CC3)cc2)s1` [Example 728], the IC50 was less than 100 nM. Consider `COc1cc(C(=O)O)c(F)cc1NS(=O)(=O)c1csc(-c2ccc(-c3cnoc3)cc2)n1` [Example 651], for which the IC50 is 100 to 500 nM. Then `CC[C@H]1CC[C@H](c2ccc(-c3nc4ccc(S(=O)(=O)Nc5cc(F)c(C(=O)O)cc5OC)cc4s3)cc2)CC1` [Example 658], with 1000 to 100000 nM. Take `COc1cc(C(=O)O)c(F)cc1NS(=O)(=O)c1csc(-c2ccc(C3=CCC(C)(C)CC3)c(C)c2F)n1` [Example 569]: the IC50 is less than 100 nM. Turning to `COc1cc(C(=O)O)ccc1NS(=O)(=O)c1coc(-c2ccc(C(C)(C)C)cc2)n1` [Example 465], the IC50 fell in the range of 100 to 500 nM. For the molecule `COc1cc(C(=O)O)ccc1NS(=O)(=O)c1ccc(-c2ccc(C3CCCCC3)cc2)cn1` [Example 340], the IC50 lay within 1000 to 100000 nM. Under `Cn1nnnc1-c1ccc(NS(=O)(=O)c2cnc(-c3ccc(F)cc3)s2)cc1` [Example 35] stands 1000 to 100000 nM. Regarding `COc1cc(C(=O)O)ccc1NS(=O)(=O)N1Cc2cccc(-c3ccc(C4CCCCC4)cc3)c2C1` [Example 360], the half-maximal inhibitory concentration (IC50) lay within 1000 to 100000 nM. Then `O=C(O)[C@H]1CC[C@H](NS(=O)(=O)c2cnc(-c3ccc(F)cc3)s2)CC1` [Example 67], with 1000 to 100000 nM; and `COc1cc(C(=O)O)c(F)cc1NS(=O)(=O)c1csc(-c2ccc([C@H]3CC[C@@H](C(C)(C)C)CC3)cc2C(F)(F)F)n1` [Example 782], with 100 to 500 nM; and `CCCCOc1c(C2=CCC(C(C)C)CC2)ccc(-c2nc(S(=O)(=O)Nc3cc(F)c(C(=O)O)cc3OC)cs2)c1F` (centres unmarked) [Example 585], with 100 to 500 nM. Consider `COc1cc(C(=O)O)c(F)cc1NS(=O)(=O)c1ccc2sc(-c3ccc(C4CCC4)cc3)nc2c1` [Example 663], for which the IC50 lay in the range of 100 to 500 nM.

For `COc1cc(C(=O)O)c(F)cc1NS(=O)(=O)c1cnc(-c2ccc(F)cc2)s1` [Example 39], the IC50 was less than 100 nM.

In the case of `COc1cc(CC(=O)O)ccc1NS(=O)(=O)c1csc(C#Cc2cccc(OC(F)(F)F)c2)n1` [Example 401, 2-(3-methoxy-4-((2-((3-(trifluoromethoxy)phenyl)ethynyl)thiazole)-4-sulfonamido)phenyl)acetic acid], the IC50 lay in the range of 1000 to 100000 nM. On to `COc1cc(C(=O)O)ccc1NS(=O)(=O)Nc1nc2ccc(-c3ccc(F)cc3)cc2s1` [Example 329], for which the IC50 is 1000 to 100000 nM. Consider `O=C(O)Cc1ccc(NS(=O)(=O)c2cnc(-c3ccc(F)cc3)s2)cc1` [Example 27], for which the IC50 lay within 1000 to 100000 nM.

On to `COc1cc(C(=O)O)ccc1NS(=O)(=O)c1csc(C#Cc2ccc(C(C)C)cc2)n1` [Example 189], for which the IC50 was less than 100 nM. On to `COc1cc(C(=O)O)ccc1NS(=O)(=O)c1cnc(-c2ccccc2)s1` [Example 158], for which the IC50 was in the range of 100 to 500 nM. In the case of `COc1cc(C(=O)O)c(F)cc1NS(=O)(=O)c1cnc(-c2ccc(-c3ccc(C(F)(F)C(F)(F)F)cc3)cc2)s1` [Example 770], the IC50 was less than 100 nM.

Take `COc1cc(C(=O)O)ccc1NS(=O)(=O)c1csc(-c2ccc(C(=O)c3ccccc3)cc2)n1` [Example 297]: the IC50 is 500 to 1000 nM. Regarding `COc1cc(C(=O)O)ccc1NS(=O)(=O)c1csc(-c2cccc(C3CCCCC3)c2)n1` [Example 366], the IC50 was 100 to 500 nM. Consider `COc1cc(C(=O)N(C)O)ccc1NS(=O)(=O)c1cnc(-c2ccc(F)cc2)s1` [Example 71], for which the IC50 lay in the range of 1000 to 100000 nM.

Take `COc1cc(C(=O)O)ccc1NS(=O)(=O)c1csc(-c2ccccc2C)n1` [Example 125]: the IC50 lay within 500 to 1000 nM. Turning to `COc1cccc(C#Cc2nc(S(=O)(=O)Nc3ccc(C(=O)O)cc3OC)cs2)n1` [Example 244], the IC50 was in the range of 500 to 1000 nM. Under `COc1cc(C(=O)O)ccc1NS(=O)(=O)c1csc(-c2ccc(N3CCCCC3)cc2)n1` [Example 284] stands 100 to 500 nM; under `COc1cc(C(=O)O)ccc1NS(=O)(=O)c1csc(N2CCC(c3nnn[nH]3)CC2)n1` [Example 263], 1000 to 100000 nM.

Consider `COc1cc(C(=O)O)ccc1NS(=O)(=O)c1cccc(-c2ccccc2)c1` [Example 145], for which the IC50 lay within 1000 to 100000 nM. For `COc1cc(C(=O)O)c(F)cc1NS(=O)(=O)c1ccc(-c2ccc(F)cc2)s1` [Example 231], the IC50 was less than 100 nM. With `COc1cc(C(=O)O)c(F)cc1NS(=O)(=O)c1ccc2sc(-c3ccc(C4CCCC4)cc3)nc2c1` [Example 662], the IC50 is 100 to 500 nM. `COc1cc(C(=O)O)ccc1NS(=O)(=O)c1csc(N2CCC(c3ccccc3)C2)n1` (centres unmarked) [Example 259]: the IC50 fell in the range of 1000 to 100000 nM.

On to `COc1cc(C(=O)O)c(F)cc1NS(=O)(=O)c1cccc(-c2ccc(C3=CCC(C(C)(C)C)CC3)cc2)c1F` (centres unmarked) [Example 498], for which the IC50 was less than 100 nM. In the case of `Cc1cc(C(=O)O)ccc1NS(=O)(=O)c1cnc(-c2ccc(F)cc2)s1` [Example 20], the IC50 lay within 1000 to 100000 nM. In the case of `COc1cc(C(=O)O)ccc1NS(=O)(=O)c1ccc(-c2ccc(C3CCCCC3)cc2)c(F)c1` [Example 326, 4-((4′-cyclohexyl-2-fluoro-[1,1′-biphenyl])-4-sulfonamido)-3-methoxybenzoic acid], the IC50 lay within 100 to 500 nM. Then `COc1cc(C(=O)O)c(-c2ccccc2)cc1NS(=O)(=O)c1csc(-c2ccc(C3CCC(C)(C)CC3)cc2C(F)(F)F)n1` [Example 681], with 1000 to 100000 nM.
